One data set concerns Aeromonas hydrophila. Briefly: In-vitro antibacterial activity, MIC by broth dilution. It counts as cell-based. The note with it: Aeromonas hydrophila, 24 h, read-out: MIC values Aeromonas hydrophila. As for the experimental part:
(§1) All test compounds were dissolved in dimethyl sulfoxide (DMSO, Sigma, USA) and then diluted in Dulbecco’s modified Eagle’s medium (DMEM, Gibco, USA) at desired concentrations for cell proliferation analyses or diluted in nutrient broth medium for antimicrobial susceptibility testing respectively. The final concentration of DMSO in the DMEM culture medium was under 0.1% (v:v).
(§2) The preliminary antibacterial activities were obtained for selected compounds against various bacteria, namely: Staphyloccocus aureus ATCC25923 (Gram-positive bacteria), Clostridium perfringen CVCC52,8604 (anaerobes bacteria), Salmonella pullorum (Gram-negative bacteria), Escherichia coli ATCC25922 (Gram negative bacteria) and Aeromonas hydrophila (Gram-negative bacteria) were used in the study. Each strain was cultured in appropriate broth medium. Clostridium perfringen was incubated in an anaerobic chamber. The minimum inhibitory concentration (MIC) for each test compound was estimated using the broth dilution method. The MIC’s was determined for each strain/compound pairs that presented antimicrobial activity. The method was modified from Mohapatra›s methods ([14], [15]). Cell suspensions were prepared in 2 mL of liquid medium with concentrations of various tests of compounds in 15 mL culture tubes by inoculation with 100 μL of 10^6 cfu/mL from each stock. The cultures were incubated at 28 °C or 37 °C for 24 h. Tubes showing no visible turbidity represented the MIC, and subsequently, were inoculated on the right side of the 9cm sterile nutrient agar plates without various test compounds and incubated for 24 h (Clostridium perfringen was incubated in an anaerobic chamber.). The least concentration, at which no growth was observed, represented the minimum bactericidal concentration (MBC) ([16]).
(In general: Broth dilution looks for growth in wells or tubes with falling amounts of substance.)

The test system of data set [1] is Escherichia coli ATCC25922. The description is as above. It counts as cell-based. The note with it: Escherichia coli, read-out: MIC values Escherichia coli ATCC25922. Here is the method: as §1, §2
In the next data set the test system is Salmonella pullorum. The data set is described as above. It counts as cell-based. Particulars: Salmonella enterica, PULLORUM, 24 h. Here is the method: as §1, §2
The test system of data set [2] is Staphyloccocus aureus ATCC25923. The description is as above. It counts as cell-based. Particulars: 24 h, read-out: MIC values Staphyloccocus aureus ATCC25923. Here is the method: as §1, §2
Data set [3] deals with Clostridium perfringen CVCC52,8604. Briefly: In-vitro antibacterial activity, MIC by broth dilution (anaerobic chamber). It counts as cell-based. The note with it: Clostridium, 24 h. As for the experimental part: as §1, §2
The subject of data set [4] is HepG2 cells. As to the kind of experiment: In-vitro cytotoxicity, MTT cell proliferation assay. It counts as cell-based, human. The note with it: 24 h incubation, concentration reducing viable cells by 50%. As for the experimental part: as §1
(§3) HepG2 and normal human Chang liver cells were obtained from the Institute of Biochemistry and Cell Biology, Shanghai Institutes for Biological Sciences, Chinese Academy of Sciences (Shanghai, China). HepG2 and normal human Chang liver cells were cultured at 37˚Cwith 5% CO2 in DMEM supplemented with 2% L-glutamine, 10% fetal bovine serum (Gibco, USA), 100 U/mL penicillin and 100 […] (Gibco, USA).
(§4) The methodology for evaluating the cytotoxicity inhibitory activity of various test compounds towards cell proliferation has been described previously ([11], [17]). Cell proliferation inhibitory analyses were carried out using the 3-(4,5-dimethylthiazole-2-yl)-2,5-diphenyl tetrazolium bromide (MTT, Sigma, USA) assay. Briefly, cancers HepG2 and normal human Chang liver cells were harvested and resuspended in fresh growth medium. A 100 μL cell suspension (5 × 10^4 cells/mL) was aliquoted into each well of a 96-well culture plate. After 12 h incubation, the medium was replaced with fresh medium containing various concentrations of test compounds. The cells were then incubated for another 24 h. At the end of exposure, 10 μL of MTT solution (5 mg/mL) was added, and the cells were incubated for 4 h at 37 °C. The cells were treated with 100 μL DMSO, and absorbance was recorded at 570 nm using a microplate ELISA reader (ELX800, Bio-Tek, USA). All experiments were performed at least thrice, and data were presented as the mean of sixplicate wells ± standard deviation (SD). Cell inhibition was calculated as follows:
(§5) (OD of control group − OD of experimental group) / (OD of control group − OD of blank group) ×100%. The IC50 value for a compound was calculated using SPSS.

Data set [5] concerns normal human Chang liver cells. Described as above. It counts as cell-based. The note with it: 24 h incubation, concentration reducing viable cells by 50%. As for the experimental part:
as §1, §3, §4, §5

Data set [6] has as its system Gram-positive and Gram-negative bacteria. Briefly: Antibacterial activity class based on the MIC results. It counts as cell-based. As for the experimental part: as §2
In this study, activity of quinoxaline-1, 4-dioxides and their deoxygenations was tested against selected Gram-negative bacteria (Escherichia coli, Salmonella pullorum and Aeromonas hydrophila), Gram-positive bacteria (Staphyloccocus aureus and Clostridium perfringen). The in-vitro antibacterial activity was based on the MIC results: Strong antibacterial activity, if MIC is less than 50 μg/mL; Moderate, if MIC is in between 50 and 250 μg/mL; No activity, if MIC is more than 500 μg/mL.

Data set [7] deals with HepG2 cells. Briefly: Identification of metabolic pathways in HepG2 cells by LC-MS/MS. The note with it: HepG2 cells incubated for 24 h. It counts as in vitro ADME, human. Here is the method:
For recognition of the metabolic characteristics of quinocetone (3a), deoxyquinocetone (5a), olaquindox, 3-methyl-2-(3-fura-2-propenoyl)-quinoxaline -1,4-dioxide 6, and 3-methyl -2-quinoxaline-2-carboxylate-1,4-dioxide 8, HepG2 cells were seeded at 6× 10^4 cells/ml density in 24-well plates. After 24 h incubation, the medium was replaced with fresh medium containing various concentrations ([…]) of test compounds. After 24 h incubation, the medium was collected and extracted with ethyl acetate then centrifuged at […] for 20min at 4 °C. The organic supernatant was evaporated under nitrogen atmosphere at 40 °C, the residue was dissolved in 200μL acetonitrile. The aliquot was filtered by a 0.22 μM membrane then analyzed. The blank is conducted in the absence of pharmaceuticals.
All experiments were performed with a Waters Alliance 2695 LC system (Waters) and a quattro micro API quadruple mass spectrometer (Micromass, Manchester, UK) equipped with an electro-spray ion source (ESI).
LC analysis was carried out on an XTerra C18 HPLC column (2.1 mm×100 mm, 3.5 μM) (Waters, Milford, MA, USA) equipped with a guard column (XTerra C18 2.1 mm×100 mm, 3.5μM) (Waters, Milford, MA, USA). […]
The MS instrument was used for analysis operating in a positive ion mode. […] The spectra was recorded in the range m/z 50~500 for full scan MS analysis. […]

The test system of data set [8] is HepG2, Vero, L-02 and Chang liver cell lines. Also on record: method as in PMID 19061932, PMID 22840332. The note with it: in-vitro, ref [7],[11]; cited from earlier work.
Where [9] appears, read: ATCC25922, broth dilution, 24 h.
Setting [10] is: Homo sapiens, Chang liver, 24 h.

Values after ≈ are worked out from the molar mass of the structure shown. Read-outs that look alike come from different tables or passages of the source.

As a reminder, the MIC is the lowest concentration found to suppress growth. What is called IC50 is the midpoint of a concentration-inhibition curve. Usually melting point stands for the temperature of the solid-liquid transition.

As to `Cc1c(C(=O)C=Cc2ccccc2)[n+]([O-])c2ccccc2[n+]1[O-]` [Compound 3a, 3-Methyl-2-(3-phenyl-2-propenoyl)-quinoxaline-1,4-dioxide, reference compound], the MIC in the data set with Aeromonas hydrophila (broth dilution) was determined as 49 µg/mL (≈ 160 µM); in data set [1] (setting [9]) it was 97.9 µg/mL (≈ 320 µM); against Salmonella pullorum it was 49 µg/mL (≈ 160 µM); in data set [2] (broth dilution), 24.5 µg/mL (≈ 79.9 µM); in [3], 196 µg/mL (≈ 639 µM). Moreover, the IC50 in the data set on HepG2 cells [4] is 49.3 ± 1.94 µM; in the data set on HepG2 cells [4] (Homo sapiens, HepG2, 24 h) it was 49 µM; in data set [5] it was 63.3 ± 5.55 µM; in data set [5] (setting [10]), 63 µM. Also, the “antibacterial activity against Gram-positive and Gram-negative bacteria” value (shortened to “antibacterial activity”) in [6] is on record as “strong or moderate activity”. The “categories of metabolites in HepG2 cells” value in the data set with HepG2 cells [7] was “reduction, hydroxylation, and a combination of reduction and hydroxylation”. In data set [8], the growth inhibitory effects entry is reported as “significant growth inhibitory effects”.
As for `Cc1c(C(=O)/C=C/c2ccc(Cl)cc2)[n+]([O-])c2ccccc2[n+]1[O-]` [Compound 3g], the MIC in the data set with Aeromonas hydrophila (broth dilution) was greater than 500 µg/mL; in data set [1] (setting [9]) it was greater than 500 µg/mL; with Salmonella pullorum, greater than 500 µg/mL; in data set [2] (broth dilution), 27.2 µg/mL (≈ 79.8 µM); in data set [3] it was 435 µg/mL (≈ 1280 µM). Besides, the IC50 with HepG2 cells [4] was 103 ± 4.08 µM; with HepG2 cells [4] (Homo sapiens, HepG2, 24 h), 102 µM; in data set [5] (setting [10]) it was 114 ± 4.59 µM. Moreover, in data set [6], the “antibacterial activity” value is listed as “little or no activity”.
With `Cc1c(C(=O)/C=C/c2ccc(N(C)C)cc2)[n+]([O-])c2ccccc2[n+]1[O-]` [Compound 3h], the MIC was 223 µg/mL (≈ 639 µM) with Aeromonas hydrophila (broth dilution); 447 µg/mL (≈ 1280 µM) in [1] (ATCC25922, 24 h); greater than 500 µg/mL against Salmonella pullorum; 447 µg/mL (≈ 1280 µM) in data set [2]; 447 µg/mL (≈ 1280 µM) in data set [3]. Moreover, the IC50 was 395 ± 14.6 µM in the data set with HepG2 cells [4] (Homo sapiens, HepG2, 24 h) and 509 ± 14.8 µM in [5] (setting [10]). Further, the “antibacterial activity” value in data set [6] is “little or no activity”.
Turning to `CC(=O)c1nc2ccccc2nc1C` [Compound 4, 2-acetyl-3-methylquinoxaline], the MIC in the data set on Aeromonas hydrophila (broth dilution) was 119 µg/mL (≈ 639 µM); in data set [1] (setting [9]), greater than 500 µg/mL; with Salmonella pullorum, 476 µg/mL (≈ 2560 µM); in data set [2] (broth dilution), greater than 500 µg/mL; in [3], greater than 500 µg/mL. The IC50 in the data set on HepG2 cells [4] (Homo sapiens, HepG2, 24 h) was 572 ± 36.2 µM; in [5] (setting [10]), 672 ± 23.2 µM. Further, the “antibacterial activity” value in data set [6] was “little or no activity”.
On to `Cc1c(C(=O)/C=C/c2ccco2)[n+]([O-])c2ccccc2[n+]1[O-]` [Compound 6, 3-methyl-2-(3-fura-2-propenoyl)-quinoxaline-1,4-dioxide], for which the MIC was found to be 94.7 µg/mL (≈ 320 µM) in the data set with Aeromonas hydrophila; 94.7 µg/mL (≈ 320 µM) in [1] (ATCC25922, 24 h); 189 µg/mL (≈ 639 µM) in the data set with Salmonella pullorum; 94.7 µg/mL (≈ 320 µM) in data set [2]; 94.7 µg/mL (≈ 320 µM) in data set [3]. Besides, the IC50 in the data set on HepG2 cells [4] (Homo sapiens, HepG2, 24 h) is 240 ± 34.8 µM; in [5] (setting [10]), 299 ± 6.72 µM. In addition, in data set [6], the “antibacterial activity” value was “strong or moderate activity”.
`CCOC(=O)c1c(C)[n+]([O-])c2ccccc2[n+]1[O-]` [Compound 8, 3-methyl-2-quinoxaline-2-carboxylate-1,4-dioxide]: the MIC in the data set on Aeromonas hydrophila (broth dilution) was 39.7 µg/mL (≈ 160 µM); in [1] (ATCC25922, 24 h), 4.96 µg/mL (≈ 20 µM); against Salmonella pullorum, 19.8 µg/mL (≈ 79.9 µM); in [2] (broth dilution), 39.7 µg/mL (≈ 160 µM); in data set [3], 4.96 µg/mL (≈ 20 µM). The IC50 with HepG2 cells [4] (Homo sapiens, HepG2, 24 h) was 217 ± 3.48 µM; in data set [5] (setting [10]), 217 ± 3.52 µM. The “antibacterial activity” value in [6] is on record as “strong or moderate activity”.
`CCOC(=O)c1nc2ccccc2nc1C` [Compound 9, 3-methyl-2-quinoxaline-2-carboxylate]: the MIC is 138 µg/mL (≈ 639 µM) in the data set on Aeromonas hydrophila (broth dilution); greater than 500 µg/mL in data set [1] (setting [9]); greater than 500 µg/mL against Salmonella pullorum; greater than 500 µg/mL in data set [2] (broth dilution); greater than 500 µg/mL in [3]. Besides, the IC50 in the data set with HepG2 cells [4] (Homo sapiens, HepG2, 24 h) was 547 ± 7.71 µM; in data set [5] (setting [10]), 610 ± 18.4 µM. The “antibacterial activity” value in data set [6] is “little or no activity”.
Molecule `Cc1c[n+]([O-])c2ccccc2[n+]1[O-]` [Compound 11, 3-methyl-quinoxaline-1,4-dioxide] displayed a melting point of 173.5 to 176.8 °C. Further, the MIC in the data set on Aeromonas hydrophila turned out to be 225 µg/mL (≈ 1280 µM). Moreover, the minimal inhibitory concentration (MIC) in [1] (setting [9]) was determined as 56.3 µg/mL (≈ 320 µM). In addition, inhibition of growth in the data set on Salmonella pullorum (MIC) required 451 µg/mL (≈ 2560 µM). In addition, the MIC in data set [2] (broth dilution) stood at 451 µg/mL (≈ 2560 µM). In data set [3], this molecule gave an MIC of 225 µg/mL (≈ 1280 µM). This molecule registered an IC50 with HepG2 cells [4] (Homo sapiens, HepG2, 24 h) of 465 ± 28.8 µM. The molecule also showed an IC50 in data set [5] (setting [10]) of 452 ± 6.86 µM. Besides, in data set [6], the “antibacterial activity” value was “little or no activity”.

The values are drawn from paper PMC5603865, “Synthesis, In-Vitro Activity and Metabolic Properties of Quinocetone and Structurally Similar Compounds” (Iranian Journal of Pharmaceutical Research : IJPR, 2017).
